The source of these data is ChEMBL document CHEMBL4251688, “Allosteric Modulators of Nicotinic Acetylcholine Receptors Useful for the Treatment of Cognitive Impairment” (ACS Med Chem Lett, 2018).

A word on the EC50: it is the concentration needed to bring the measured effect to its halfway point.

For the test, the target named is Neuronal acetylcholine receptor subunit alpha-7 (Homo sapiens, UniProt P36544). The test can be described thus: Positive allosteric modulation of human alpha 7 nAChR expressed in HEK cells co-expressing human RIC3 assessed as increase in acetylcholine-induced channel current at holding potential of -60 mV incubated for 58 secs followed by acetylcholine treatment for 1 sec by patch clamp electrophysiology assay. In kind it is cell-based.
Neuronal acetylcholine receptor subunit alpha-7, sequence (P36544 whole entry): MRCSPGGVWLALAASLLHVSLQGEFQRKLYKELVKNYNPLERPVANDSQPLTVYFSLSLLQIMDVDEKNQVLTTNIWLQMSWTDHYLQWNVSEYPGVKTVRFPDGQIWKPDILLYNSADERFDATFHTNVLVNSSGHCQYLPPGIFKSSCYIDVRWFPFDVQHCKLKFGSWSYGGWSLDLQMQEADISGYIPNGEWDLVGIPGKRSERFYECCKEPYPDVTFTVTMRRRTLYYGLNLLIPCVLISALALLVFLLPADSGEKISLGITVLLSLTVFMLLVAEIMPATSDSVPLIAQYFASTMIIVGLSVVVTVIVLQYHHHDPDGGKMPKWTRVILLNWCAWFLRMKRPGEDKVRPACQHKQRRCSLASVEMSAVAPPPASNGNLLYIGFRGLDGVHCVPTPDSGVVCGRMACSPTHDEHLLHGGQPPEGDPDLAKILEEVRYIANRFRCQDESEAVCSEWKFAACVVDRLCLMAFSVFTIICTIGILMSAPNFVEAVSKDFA
With `CC1(C)[C@@H](c2ccc(S(N)(=O)=O)cc2)[C@@H]1c1noc(-c2ccc(F)cc2)n1`, the EC50 was 93 nM.
On to `CC1(C)[C@@H](c2ccc(S(N)(=O)=O)cc2)[C@@H]1c1noc(C2CC(F)(F)C2)n1`, for which the EC50 came out at 98 nM.
`NS(=O)(=O)c1ccc([C@H]2[C@H](c3noc(-c4ccccc4)n3)C2(F)F)cc1`: the EC50 was found to be 83 nM.
The figure for `CC1(C)[C@@H](c2ccc(S(N)(=O)=O)cc2)[C@@H]1c1noc(C2CCCC2)n1` is 69 nM; for `CC(Oc1cccc(Cl)c1)c1nc([C@H]2[C@H](c3ccc(S(N)(=O)=O)cc3)C2(C)C)no1` (stereo not given in full) it is 93 nM.
